The values that follow come from publication PMC6273138, “Inhibitory Effects of Aschantin on Cytochrome P450 and Uridine 5′-diphospho-glucuronosyltransferase Enzyme Activities in Human Liver Microsomes” (Molecules, 2016).

Like-named read-outs stand apart in the source and are kept apart here. Bounds are passed on as bounds.

Common to all, as to format: in vitro ADME
In one data set the target is CYP3A4 (Homo sapiens, UniProt P08684). Put plainly: Mechanism-based (time- and concentration-dependent) inactivation of CYP3A4 in human liver microsomes. The settings on record: CYP3A4-mediated midazolam 1′-hydroxylation. Here is the method:
The microsomes (1 mg/mL) were pre-incubated with various concentrations of aschantin in 50 mM potassium phosphate buffer (pH 7.4) in the presence of NADPH. Aliquots (10 µL) of the incubated mixtures were withdrawn at 5, 10, 15, and 20 min after incubation commenced and added to other tubes containing the CYP substrates (2 µM amodiaquine for CYP2C8, 10 µM diclofenac for CYP2C9, 100 µM [S]-mephenytoin for CYP2C19, or 2 µM midazolam for CYP3A4), 1 mM NADPH, 50 mM potassium phosphate buffer (pH 7.4), and 10 mM MgCl2, in 90 µL reaction mixtures. […] Aliquots (5 µL) of the diluted supernatants were analyzed by LC-MS/MS, as described above.

The target of another data set is T1, UGT1A3 (Homo sapiens, UniProt P35503).
T1 construct: using pooled human liver microsomes incubated with the cocktail of UGT substrates; tissue Corning Life Sciences 452161; host or cells: pooled human liver microsomes
T1 sequence (P35503 29-534): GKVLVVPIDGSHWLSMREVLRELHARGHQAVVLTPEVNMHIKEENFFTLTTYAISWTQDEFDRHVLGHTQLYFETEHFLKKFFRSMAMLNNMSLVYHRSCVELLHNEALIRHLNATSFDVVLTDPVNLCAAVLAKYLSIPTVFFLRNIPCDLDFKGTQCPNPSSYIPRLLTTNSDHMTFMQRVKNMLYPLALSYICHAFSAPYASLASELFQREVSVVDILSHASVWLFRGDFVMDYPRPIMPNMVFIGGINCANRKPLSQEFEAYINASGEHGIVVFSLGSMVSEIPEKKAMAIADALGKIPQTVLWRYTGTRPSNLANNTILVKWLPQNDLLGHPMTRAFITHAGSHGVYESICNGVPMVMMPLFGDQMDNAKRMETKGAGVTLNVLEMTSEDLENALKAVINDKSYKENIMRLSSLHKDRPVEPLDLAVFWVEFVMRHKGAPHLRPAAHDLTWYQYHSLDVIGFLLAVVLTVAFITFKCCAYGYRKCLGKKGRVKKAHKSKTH
As to the kind of experiment: UGT1A3-catalyzed chenodeoxycholic acid 24-acyl-glucuronidation inhibition in pooled human liver microsomes. As for the experimental part: The extents of aschantin on UGT1A1, UGT1A3, UGT1A4, UGT1A6, UGT1A9, and UGT2B7 were evaluated by LC-MS/MS, using pooled human liver microsomes incubated with the cocktail of UGT substrates. The method was modified from that of Joo et al..
The metabolites formed from the six UGT cocktail substrates were simultaneously measured using the LC-MS/MS method. […] The mass spectrometer was equipped with an ESI source and was operated in both positive and negative ion modes. […] Each metabolite was quantified via SRM in the negative ion (chenodeoxycholic acid 24-acyl-β-glucuronide, 567.2 > 391.0; mycophenolic acid glucuronide, 495.2 > 318.9; propofol glucuronide, 353.3 > 177.1) and positive ion (SN-38 glucuronide, 569.0 > 393.0; trifluoperazine glucuronide, 584.2 > 408.1; N-acetylserotonin-β-D-glucuronide, 395.2 > 219.0; naloxone 3-β-D-glucuronide, 504.0 > 310.0; meloxicam, 352.0 > 115.1) modes.

The next data set deals with T2, CYP2B6 (Homo sapiens, UniProt P20813).
T2 construct: tissue Corning Life Sciences 452161; host or cells: pooled human liver microsomes
T2 sequence (P20813 1-491): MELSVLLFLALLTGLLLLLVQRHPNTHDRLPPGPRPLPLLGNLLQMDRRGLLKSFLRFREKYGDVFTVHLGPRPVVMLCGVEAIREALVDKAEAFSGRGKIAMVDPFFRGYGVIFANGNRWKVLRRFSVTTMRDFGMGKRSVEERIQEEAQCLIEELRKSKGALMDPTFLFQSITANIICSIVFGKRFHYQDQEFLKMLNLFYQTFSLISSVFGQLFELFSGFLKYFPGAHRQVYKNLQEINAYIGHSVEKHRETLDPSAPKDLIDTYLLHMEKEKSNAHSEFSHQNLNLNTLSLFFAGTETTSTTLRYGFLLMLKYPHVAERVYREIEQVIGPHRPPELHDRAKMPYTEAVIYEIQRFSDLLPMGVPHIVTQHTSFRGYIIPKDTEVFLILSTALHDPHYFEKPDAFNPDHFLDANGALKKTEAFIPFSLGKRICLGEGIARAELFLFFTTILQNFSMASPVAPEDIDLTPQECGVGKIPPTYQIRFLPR
Put plainly: CYP2B6-catalyzed bupropion hydroxylase inhibition in pooled human liver microsomes. The settings on record: for IC50: CYP2B6 bupropion hydroxylase, 50 µM bupropion. As for the experimental part:
The effects of aschantin on CYP2B6-catalyzed bupropion hydroxylase activity were evaluated using LC-MS/MS with pooled human liver microsomes. […] The reaction was initiated by adding bupropion. Hydroxybupropion levels were determined using the LC-MS/MS method described above; the SRM parameters were 256.1 > 238.0 for hydroxybupropion and 287.2 > 187.0 for d9-1′-hydroxybufuralol.

Chain of CYP3A4 (P08684 2-503): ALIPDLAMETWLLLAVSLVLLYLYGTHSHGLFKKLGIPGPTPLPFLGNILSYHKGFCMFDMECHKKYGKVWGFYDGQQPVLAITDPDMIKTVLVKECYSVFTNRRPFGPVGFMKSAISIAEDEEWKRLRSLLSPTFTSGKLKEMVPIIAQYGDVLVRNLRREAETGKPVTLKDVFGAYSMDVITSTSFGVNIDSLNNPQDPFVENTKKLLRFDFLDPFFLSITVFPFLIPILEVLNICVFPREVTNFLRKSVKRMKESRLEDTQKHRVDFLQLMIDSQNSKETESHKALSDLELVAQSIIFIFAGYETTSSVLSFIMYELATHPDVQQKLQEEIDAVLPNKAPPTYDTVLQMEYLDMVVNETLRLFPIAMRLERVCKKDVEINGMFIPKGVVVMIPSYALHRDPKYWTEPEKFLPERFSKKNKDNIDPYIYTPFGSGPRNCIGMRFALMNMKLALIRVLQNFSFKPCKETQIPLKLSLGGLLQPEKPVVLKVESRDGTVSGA

Consider `COc1cc([C@H]2OC[C@H]3[C@@H]2CO[C@@H]3c2ccc3c(c2)OCO3)cc(OC)c1OC` [Aschantin], for which the Ki at CYP3A4 (read-out: Ki (apparent)) worked out at 12.6 µM. The kinact on CYP3A4 (pH 7.4, probe midazolam (2 µM)) was 0.00103 s⁻¹. Also, the IC50 at UGT1A3 (UGT1A3-catalyzed chenodeoxycholic acid 24-acyl-glucuronidation, 2 µM chenodeoxycholic acid, pooled human liver microsomes) is greater than 200 µM; on CYP2B6 (30 min pre-incubation with microsomes and NADPH, read-out: IC50 With Pre-incubation) it was 87.9 µM; at CYP2B6 (pooled human liver microsomes, no pre-incubation, read-out: IC50 No Pre-incubation), greater than 100 µM. The “inhibition of UGT1A3-catalyzed chenodeoxycholic acid 24-acyl-glucuronidation” value at UGT1A3 (aschantin at 200 µM, human liver microsomes) is “not inhibited”. Moreover, the “inhibition of CYP2B6-mediated bupropion hydroxylation” value against CYP2B6 (aschantin at 100 µM, human liver microsomes) is recorded as “negligibly inhibited”.
